Source: BindingDB's records for doi:10.1021/cb500018s (Johns Hopkins University, 2014)
Counter-ions that a name gives are not always drawn.

target: Lysine-specific histone demethylase 1A (Homo sapiens, UniProt O60341); test: GST-LSD1 Enzymatic Assays; settings: pH 7.5

| Compound | Ki [nM] |
| --- | --- |
| NNCCc1ccc(N(Cc2ccccc2)C(=O)CCCc2ccccc2)cc1 [N-Benzyl-N-[4-(2-hydrazinylethyl)phenyl]-4-phenylbutanamide oxalate salt (12m)] | 1600 |
| NNCCCc1ccccc1 [(3-Phenylpropyl)hydrazine dihydrochloride salt (9c)] | 5000 |
| NNCCCc1ccc(OCc2ccccc2)cc1 [{3-[4-(Benxyloxy)phenyl]propyl}hydrazine dihydrochloride salt (14)] | 900 |
| NNCCc1ccc(NC(=O)CCCc2ccc(Cl)cc2)cc1 [4-(4-Chlorophenyl)-N-[4-(2-hydrazinylethyl)phenyl]butanamide sulfate salt (12f)] | 156 |
| NNCCOc1ccccc1 [(2-Phenoxyethyl)hydrazine dihydrochloride salt (10a)] | 44000 |
| NNCCc1ccc(NC(=O)c2ccccc2)cc1 [N-[4-(2-Hydrazinylethyl)phenyl]benzamide dihydrochloride salt (12a)] | 280 |
| NNCCCOc1ccccc1 [(3-Phenoxypropyl)hydrazine dihydrochloride salt (10b)] | 12000 |
| NNCCc1ccc(NC(=O)CCCc2ccc([N+](=O)[O-])cc2)cc1 [N-[4-(2-Hydrazinylethyl)phenyl]-4-(4-nitrophenyl)butanamide sulfate salt (12i)] | 282 |
| CN(C(=O)CCCc1ccccc1)c1ccc(CCNN)cc1 [N-[4-(2-Hydrazinylethyl)phenyl]-N-methyl-4-phenylbutanamide oxalate salt (12l)] | 2000 |
| NNCCc1ccc(NC(=O)/C=C/c2ccccc2)cc1 [(2E)-N-[4-(2-Hydrazinylethyl)phenyl]-3-phenylprop-2-enamide sulfate salt (13)] | 100 |
| NNCCCCc1ccccc1 [(4-Phenylbutyl)hydrazine dihydrochloride salt (9h)] | 22000 |
| COc1ccc(CCCNN)cc1 [[3-(4-Methoxyphenyl)propyl]hydrazine dihydrochloride salt (9e)] | 8000 |

The remaining lines, values ahead:

| Ki [nM] | Compound |
| --- | --- |
| 210 | NNCCc1ccc(NC(=O)CCc2c[nH]c3ccccc23)cc1 [N-[4-(2-Hydrazinylethyl)phenyl]-3-(1H-indol-3-yl)propanamide sulfate salt (15a)] |
| 207 | COc1ccc(CCCC(=O)Nc2ccc(CCNN)cc2)cc1 [N-[4-(2-Hydrazinylethyl)phenyl]-4-(4-methoxyphenyl)butanamide sulfate salt (12h)] |
| 260 | NNCCc1ccc(NC(=O)CCCCc2ccccc2)cc1 [N-[4-(2-Hydrazinylethyl)phenyl]-5-phenylpentanamide oxalate salt (12e)] |
| 370 | NNCCc1ccc(NC(=O)Cc2ccccc2)cc1 [N-[4-(2-Hydrazinylethyl)phenyl]-2-phenylacetamide dihydrochloride salt (12b)] |
| 260 | NNCCc1ccc(NC(=O)CCc2ccccc2)cc1 [N-[4-(2-Hydrazinylethyl)phenyl]-3-phenylpropanamide sulfate salt (12c)] |
| 223 | CS(=O)(=O)Oc1cccc(CCC(=O)Nc2ccc(CCNN)cc2)c1 [3-(3-{[4-(2-Hydrazinylethyl)phenyl]amino}-3-oxopropyl)phenyl methanesulfonate oxalate salt (12k)] |
| 204 | CS(=O)(=O)Oc1ccccc1CCC(=O)Nc1ccc(CCNN)cc1 [2-(3-{[4-(2-Hydrazinylethyl)phenyl]amino}-3-oxopropyl)phenyl methanesulfonate oxalate salt (12j)] |

target: T1, Amine oxidase [flavin-containing] A (Homo sapiens, UniProt P21397); test: MAO-A/B Activity and Inhibition Assay; settings: pH 7.5
T1 sequence (P21397 whole entry): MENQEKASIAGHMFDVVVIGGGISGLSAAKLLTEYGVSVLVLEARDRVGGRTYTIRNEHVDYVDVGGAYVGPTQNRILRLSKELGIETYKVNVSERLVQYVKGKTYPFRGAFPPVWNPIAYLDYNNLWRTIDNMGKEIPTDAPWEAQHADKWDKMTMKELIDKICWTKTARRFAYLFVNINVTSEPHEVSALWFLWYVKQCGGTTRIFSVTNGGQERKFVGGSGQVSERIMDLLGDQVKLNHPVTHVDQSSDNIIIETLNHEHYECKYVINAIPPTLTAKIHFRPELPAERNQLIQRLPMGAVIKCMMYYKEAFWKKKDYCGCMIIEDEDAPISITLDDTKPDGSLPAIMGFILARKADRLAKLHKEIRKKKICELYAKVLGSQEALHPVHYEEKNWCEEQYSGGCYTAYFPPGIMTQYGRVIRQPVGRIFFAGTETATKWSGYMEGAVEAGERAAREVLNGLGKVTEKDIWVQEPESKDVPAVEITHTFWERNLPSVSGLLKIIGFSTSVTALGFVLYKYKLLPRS

| Ki [nM] | Compound |
| --- | --- |
| 2600 | NNCCc1ccc(NC(=O)CCCc2ccccc2)cc1 [N-[4-(2-Hydrazinylethyl)phenyl]-4-phenylbutanamide dihydrochloride salt (12d)] |

target: T2, Amine oxidase [flavin-containing] B (Homo sapiens, UniProt P27338); test: MAO-A/B Activity and Inhibition Assay; settings: pH 7.5
T2 sequence (P27338 whole entry): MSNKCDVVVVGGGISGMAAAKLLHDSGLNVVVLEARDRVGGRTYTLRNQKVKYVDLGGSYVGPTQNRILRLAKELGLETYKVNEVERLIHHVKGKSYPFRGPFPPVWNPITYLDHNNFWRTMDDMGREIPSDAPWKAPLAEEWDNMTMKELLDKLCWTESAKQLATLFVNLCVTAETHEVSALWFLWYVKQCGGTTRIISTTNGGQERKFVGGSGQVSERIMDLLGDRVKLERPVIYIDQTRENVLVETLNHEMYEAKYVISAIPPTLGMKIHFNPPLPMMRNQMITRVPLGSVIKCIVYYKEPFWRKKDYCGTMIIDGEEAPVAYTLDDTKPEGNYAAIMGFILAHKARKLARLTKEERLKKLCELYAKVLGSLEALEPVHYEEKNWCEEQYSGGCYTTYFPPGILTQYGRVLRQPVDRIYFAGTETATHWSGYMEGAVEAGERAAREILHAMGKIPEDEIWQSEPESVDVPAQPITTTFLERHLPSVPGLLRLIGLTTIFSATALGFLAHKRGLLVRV

| Ki [nM] | Compound |
| --- | --- |
| 6500 | NNCCc1ccc(NC(=O)CCCc2ccccc2)cc1 [N-[4-(2-Hydrazinylethyl)phenyl]-4-phenylbutanamide dihydrochloride salt (12d)] |
